Test results reported in patent US20230047208A1, “RNA Splicing Modulation” (The General Hospital Corporation, priority 2020, published 2023).

Columns and labels:
SETD5 minigene, Exon X = experiment: SETD5 minigene splicing assay, RT-PCR; format: cell-based; conditions: mutated SETD5 minigene
Description: (§1) FIGS. 3E-3G Upper row: The length of the exon triplets cloned into minigenes constructs are shown. The flanking sequences of the 5′ splice sites of Exon X are shown in LOGO plots. The height of each nucleotide was estimated using in silico saturated mutagenesis, with the corresponding closely matched CNN Motifs indicated below the plots. […] Middle row: Splicing changes for Exon X in both wildtype and mutated exon triplets, predicted by the CNN model (left) and measured by RT-PCR of the minigene (right). The RT-PCR experiments were performed in duplicate and independently repeated three times for each minigene to make the bar plots (two-tailed, unpaired Student's t test). Bottom row: Example of splicing changes induced by treatment with Compound (I) in the minigene splicing assays. The percentage for Exon X inclusion is indicated beneath each lane, from treated and untreated conditions in both wildtype and mutated minigenes. […] The statistical significance, as shown in FIGS. 3E-3G, was determined via two-tailed, unpaired Student's test: *p<0.05; **p<0.01; ***p<0.001. […]
(§2) Wild-type and mutant double-stranded DNA (dsDNA) fragments, selected based on low nucleotide length and exon-skipping probability, were ordered through GENEWIZ (FragmentGENE). […] Concentrations were determined using a nanodrop spectrometer.

CPSF7 minigene, Exon X = experiment: CPSF7 minigene splicing assay, RT-PCR; format: cell-based; conditions: mutated CPSF7 minigene
Description: as §1, §2

CFTR channel = experiment: CFTR functional assessment, short circuit current (Ussing chamber) in CFBE cells stably expressing c.2988G>A; format: cell-based, human
Description: WT CFTR-EMG-i14-i18, CFTR-EMG-i14-i18 harboring c.2988G>A, Flp-In-CFBE, and Flp-In-293 cells stably expressing WT-EMG and c.2988G>A EMG were generated. Both Flpin-293 and Flp-In-CFBE cells lack endogenous CFTR expression (CFBE41o-) and contain a single Flp recombinase target site. Co-transfection of EMG plasmid with pOG44 (a plasmid encoding Flp recombinase) allowed for genomic integration at the FRT site. Hygromycin was used for stable cell selection.
Assessment of CFTR channel function and response to Compound (I) was performed in CFBEs stably expressing c.2988G>A. Briefly, CFBE stable cell lines were plated on snapwell filters. When transepithelial resistance reached ˜200Ω (˜ 5-7 days) as measured using Voltammeter (Physiologic Instruments), cells were treated with Compound (I) at varying doses (0.3 μM to 10 μM) for next 3 days. Filters were mounted in Ussing chambers (Physiological Instruments). A high chloride solution was added to the basolateral chamber and a low chloride solution was added to the apical chamber. After equilibration of currents, 10 μM forskolin (Selleckchem) was added to the basolateral side to activate CFTR channels via cAMP signaling. Currents were allowed to plateau, followed by acute addition of 10 μM ivacaftor at apical side for CFTR potentiation (Selleckchem). Inhibition of CFTR was performed using 10 μM Inh-172 (Selleckchem) added to the apical chamber.
The ability of Compound (I) to rescue chloride channel function was also assessed. CF bronchial epithelial (CFBE) cell lines was generated to stably express the splicing mutation c.2988G>A. Cells were grown in monolayers on filters and treated with increasing doses of Compound (I) (0.3 μM-10 μM) or DMSO for 3 days. Chloride channel function was assessed by measuring short circuit current (Isc) on treated CFBE cells. Forskolin was added to initiate CFTR channel activity via cAMP-mediated signaling, with further channel activation by Ivacaftor and inhibition with Inh-172, a CFTR-specific inhibitor (FIG. 9C, representative Isc tracing). CFTR-specific change in current (ΔIsc±SD) allows for measurement of chloride channel function (FIG. 9C). […] Significant recovery of CFTR function (˜3 fold) was observed following treatment with Compound (I) at 1, 3, 6, and 10 μM for 3 days, with a maximal increase in CFTR function achieved using 3 μM of Compound (I) (ΔIsc=37.168±4.32 μA/cm^2, FIG. 9C).

Clc1nc(NCc2ccncc2)c2cc[nH]c2n1 [Compound (I), 2-chloro-N-(pyridin-4-ylmethyl)-7H-pyrrolo[2,3-d]pyrimidin-4-amine]
Exon X splicing response confirmed by RT-PCR (SETD5 minigene, Exon X): exclusion
Exon X splicing response confirmed by RT-PCR (CPSF7 minigene, Exon X): inclusion
CFTR-specific change in current ΔIsc (±SD) (CFTR channel; CFBE c.2988G>A, 3 μM, 3 days (maximal increase)): 37.168±4.32 μA/cm^2
recovery of CFTR function (CFTR channel; CFBE c.2988G>A, 1, 3, 6 and 10 μM, 3 days, versus DMSO): ~3 fold
chloride channel function (CFTR channel; CFBE c.2988G>A, Compound (I) in combination with Ivacaftor): ~30 % of WT
chloride channel function (CFTR channel; CFBE c.2988G>A, Compound (I) treatment alone): ~20 % of WT
